Measurements taken from publication PMC3254698 (Bioorganic & medicinal chemistry letters, 2008).

Target: presenilin-1 (Homo sapiens, UniProt P49768)
Format: biochemical

IC50: 600 pM
Structure (SMILES): CC(C)C[C@H](NC(=O)[C@H](Cc1ccccc1)C[C@@H](O)[C@H](Cc1ccc(C(=O)c2ccccc2)cc1)NC(=O)OC(C)(C)C)C(=O)N[C@@H](Cc1ccccc1)C(=O)NCCCCCNC(=O)CCCC[C@@H]1SC[C@@H]2NC(=O)N[C@@H]21 [compound 3]
